Laboratory results published in patent US9234025B2, “Extracellular allosteric inhibitor binding domain from a tyrosine kinase receptor” (SANOFI, priority 2009, dated 2016).

How the values were obtained:
[1] = system: HUVEC; test: HUVEC proliferation; format: cell-based, human; conditions: FGFR1β3c-driven; ATP content after 3 days
Procedure: Confluent HUVEC cells are harvested and 5 10^4 cells in 100 μl RPMI 1640 (Invitrogen, 32404-014) with 0.5% FCS (Hyclone, SH30070.03), 2 mM glutamine, MEM non-essential amino-acid 1× (Gibco, 11140-035), MEM sodium pyruvate 1× (Gibco, 11360-039) are seeded per well in 96-well collagen 1-coated plates (Beckton Dickinson, 354650) overnight. Then, medium is removed and replace by 50 μl of medium that contains 2×FGF2 (R&D, 234-FSE-025), FGF4 (R&D, 235-F4-025) or FGF-19 (in house produced) and 50 μl of 2×SSR (200 or 600 nM). Cells were incubated in CO2 chamber at 37° C. for 3 days and proliferation is evaluated by quantifying ATP content with 100 μl of “Cell Titer Glo Luminescent cell viability” kit (Promega, G7571).

[2] = molecular target: T1, FGFR4 (Homo sapiens, UniProt P22455); test: FGF2 binding to FGFR4 in intact cells; conditions: receptor expressed in intact cells
T1 construct: expressed in transfected cells; host or cells: murine pre-B 300-19 cells
T1 sequence (P22455 22-802): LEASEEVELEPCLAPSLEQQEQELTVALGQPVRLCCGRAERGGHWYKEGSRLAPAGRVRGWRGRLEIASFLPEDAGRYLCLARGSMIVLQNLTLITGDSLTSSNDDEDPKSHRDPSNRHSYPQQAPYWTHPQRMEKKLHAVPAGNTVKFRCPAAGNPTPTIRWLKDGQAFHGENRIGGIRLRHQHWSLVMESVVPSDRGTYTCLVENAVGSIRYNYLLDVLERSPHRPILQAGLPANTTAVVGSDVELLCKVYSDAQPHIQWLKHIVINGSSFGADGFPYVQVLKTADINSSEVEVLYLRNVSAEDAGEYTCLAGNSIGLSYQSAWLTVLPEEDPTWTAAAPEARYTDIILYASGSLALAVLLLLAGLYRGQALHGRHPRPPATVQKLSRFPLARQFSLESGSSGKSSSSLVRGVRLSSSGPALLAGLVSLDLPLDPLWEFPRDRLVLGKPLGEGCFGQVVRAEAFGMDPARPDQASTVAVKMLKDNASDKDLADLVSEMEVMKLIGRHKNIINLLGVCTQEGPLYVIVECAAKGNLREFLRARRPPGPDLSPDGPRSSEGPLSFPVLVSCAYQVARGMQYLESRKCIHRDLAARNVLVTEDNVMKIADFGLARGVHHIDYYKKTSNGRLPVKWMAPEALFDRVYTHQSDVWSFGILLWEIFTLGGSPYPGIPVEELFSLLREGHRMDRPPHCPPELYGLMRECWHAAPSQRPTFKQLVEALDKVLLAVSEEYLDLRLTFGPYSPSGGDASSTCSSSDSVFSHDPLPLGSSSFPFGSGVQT

[3] = system: PANC02 cells; test: PANC02 migration; format: cell-based; conditions: 100 nM SSR; 100 ng/ml FGF7 with or without VEGF; FGFR2-IIIb
Procedure: Cell proliferation was analysed on exponentially growing cells that were starved for 16 hours in 100 μl RPMI 1640 (Invitrogen, 32404-014) with 0.2% FBS (Hyclone, SH30070.03), 2 mM glutamine, MEM non-essential amino-acid 1× (Gibco, 11140-035), MEM sodium pyruvate 1× (Gibco, 11360-039) and seeded at 4,000 cells/well in 96-well microplates. After exposure to mitogens and/or SSR for 72 hours, cell proliferation was assessed with the use of the CellTiter 96 AQueous One Solution Cell Proliferation Assay (Promega, Madison, Wis., USA) according to manufacturer's instructions. Cell migration was assessed by a modified Boyden chamber assay, by using 24-well inserts containing 8 μm pore size transwell permeable supports with a polycarbonate membrane (Costar, Corning Inc.). Exponentially growing cells were starved in 0.2% FBS containing medium for 16 hours and resuspended at 5×10^5 cells/ml in the same low serum medium. 100 μl of the cell suspension were seeded in the upper chamber, while chemoattractants and/or SSR were placed in the lower chamber. 10% FBS containing medium was used a positive control. After 6 hours incubation at 37° C., cells on the upper side of the membrane were scraped using a cotton swab, while migrated cells on the lower surface were fixed with 4% formaldehyde and nuclei stained with DAPI for quantification.

[4] = system: HUVEC; test: HUVEC chemotactic migration; format: cell-based, human; conditions: FGFR1-driven
Procedure: Confluent HUVEC cells are harvested and resuspended in RPMI 1640 (Invitrogen, 32404-014) without FCS, 2 mM glutamine, MEM non-essential amino-acid 1× (Gibco, 11140-035), MEM sodium pyruvate 1× (Gibco, 11360-039) at 0.8 10^6 cells/ml. 250 μl of cell solution is distributed with 4×SSR in the upper chamber of 24-wells BD Biocoat Angiogenesis System for endothelial cell migration (BD Biocoat, 354144) and 750 μl of medium in the lower chamber with FGF2 (R&D, 234-FSE-025), FGF4 (R&D, 235-F4-025) or FGF-19 (in house produced) at 67 ng/ml. Plates are incubated 22 h at 37° C. in a CO2 chamber. Then, plate insert is removed, and placed in a new 24-wells plate (Falcon, 353504) that contains 500 μL of calcein (Molecular probes, C-3100) for 90 min. Then migrated cells are fluorescent and migration is measured by a […] with downstairs reading following 485 nm excitation and 535 nm emission.

[5] = molecular target: T2, FGFR2^∂23 (Homo sapiens, UniProt P21802); test: Fourier transform infrared (FTIR) measurement, FGFR2 D2-3; conditions: maximum around 1,640 cm^−1, 100 μM SSR
T2 construct: FGFR2^∂23 (consisting of domain D2 and 3); made in house
T2 sequence (P21802 148-366 limits assumed): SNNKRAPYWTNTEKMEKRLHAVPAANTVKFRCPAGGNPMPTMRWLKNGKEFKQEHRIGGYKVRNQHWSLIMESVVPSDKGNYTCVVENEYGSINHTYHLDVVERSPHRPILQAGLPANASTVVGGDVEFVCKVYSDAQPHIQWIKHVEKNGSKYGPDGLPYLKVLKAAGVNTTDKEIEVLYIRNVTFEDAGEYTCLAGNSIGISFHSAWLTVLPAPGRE
Procedure: Fourier transform infrared measurements were performed using a Bruker Tensor 37 FT-IR spectrometer equipped with an AquaSpec flowcell. The sample compartment was thermostatted to 25° C., 100 spectra were averaged for a good signal to noise ratio. Proteins were purified as described above. Immediately after the gelfiltration, the proteins were dialysed overnight in the same preparation of buffer (10 mM Hepes pH 7.2, 150 mM NaCl) in the presence or absence of SSR. Dialysis buffer samples were used to substract background signal. The analysis was performed using the OPUS software package, provided by Bruker. Interpretation of the results was performed as described {Barth, 2002 #60}.

[6] = molecular target: T3, FGFR1 (Homo sapiens, UniProt P11362); test: AlexaFluor488-FGF2 binding on FGFR1-transfected 300-19 cells (flow cytometry); conditions: SSR 300 nM; FGF2 10 ng/ml; murine pre-B 300-19 cells
T3 construct: V5/His (encoded by the vector); expressed in transfected cells; host or cells: murine pre-B 300-19 cells
T3 sequence (P11362 22-822): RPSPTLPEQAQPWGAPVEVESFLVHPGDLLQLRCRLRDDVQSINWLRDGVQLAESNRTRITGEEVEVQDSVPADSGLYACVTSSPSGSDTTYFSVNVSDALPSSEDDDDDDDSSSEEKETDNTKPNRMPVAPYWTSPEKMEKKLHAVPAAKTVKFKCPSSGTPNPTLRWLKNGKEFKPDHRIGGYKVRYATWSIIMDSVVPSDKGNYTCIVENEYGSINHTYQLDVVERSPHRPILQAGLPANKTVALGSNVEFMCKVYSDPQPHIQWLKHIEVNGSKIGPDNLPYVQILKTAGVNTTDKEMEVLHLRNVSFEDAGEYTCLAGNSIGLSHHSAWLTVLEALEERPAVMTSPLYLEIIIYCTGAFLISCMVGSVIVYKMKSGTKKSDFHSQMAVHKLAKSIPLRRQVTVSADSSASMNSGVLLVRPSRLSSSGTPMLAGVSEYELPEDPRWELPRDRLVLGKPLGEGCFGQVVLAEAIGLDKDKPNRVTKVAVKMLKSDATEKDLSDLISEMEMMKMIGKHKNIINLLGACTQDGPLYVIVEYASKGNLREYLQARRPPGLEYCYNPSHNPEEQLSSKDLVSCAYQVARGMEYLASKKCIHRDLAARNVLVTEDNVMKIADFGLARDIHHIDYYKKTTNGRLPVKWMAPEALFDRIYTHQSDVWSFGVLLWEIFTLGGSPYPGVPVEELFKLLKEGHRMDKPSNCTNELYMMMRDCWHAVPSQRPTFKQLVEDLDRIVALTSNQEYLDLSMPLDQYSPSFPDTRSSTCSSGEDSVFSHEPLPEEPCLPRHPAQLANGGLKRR
Procedure: FGF2 was labeled with Alexa Fluor 488 C5-maleimide (Invitrogen, A10254) following purchaser recommendations.
This AF488-FGF2 was used at 10 ng/ml in binding experiments on murine pre-B 300-19 cells transfected with FGFR1 or FGFR4 constructs in pEF6-V5/His Topo plasmids (Invitrogen). SSR (300 nM final) was pre-incubating 20 min with cells in RPMI 1640 (Invitrogen, 32404-014) with 10% FCS (Hyclone, SH30070.03), 2 mM glutamine, MEM non-essential amino-acid 1× (Gibco, 11140-035), MEM sodium pyruvate 1× (Gibco, 11360-039) and […] monothioglycerol (Sigma, M6145) at 4° C. under 150 rpm agitation. Then, FGF2 (10 ng/ml final) is added for 30 min and binding is measured using a FACS Calibur flow cytometer (Beckton Dickinson). Fluorescence median for each condition is also analysed.

## COc1c(C)c(C(=O)c2ccc(N)c(C(=O)[O-])c2)n2ccccc12.[Na+] [SSR]
[1]
  FGF2-induced HUVEC proliferation: able to inhibit FGF2-induced HUVEC proliferation
[2]
  binding of FGF2 to FGFR4: failed to antagonize
[3]
  FGF7-induced PANC02 migration: blocked
[4]
  FGF2-induced HUVEC chemotactic migration: reduction of FGF2-induced HUVEC chemotactic migration
[5]
  change of FTIR spectrum (conformational change): increase in the amplitude of the amide I band
[6]
  competition with AlexaFluor488-labelled FGF2 binding to FGFR1: not able to compete this binding
